Test results reported in US8580809B2, “Filamin A-binding anti-inflammatory analgesic” (Pain Therapeutics, Inc., priority 2009, dated 2013).

Molecular target: T1, mu opiate receptor (MOR) (Rattus norvegicus, UniProt P33535)
T1 construct: from tissue; host or cells: rat striatal membrane preparation
Experiment: MOR agonist activity using [35S]GTPγS binding assay in striatal membranes
Assay type: biochemical
Settings: for MOR agonist activity, [35S]GTPγS binding to Gαo, FLNA-binding compound as agonist 0.1 μM: 0.1 μM compound; for MOR agonist activity, [35S]GTPγS binding to Gαo, FLNA-binding compound as agonist 0.1 μM / MOR agonist activity, [35S]GTPγS binding to Gαo, FLNA-binding compound as agonist 1 μM: striatal membranes; for MOR agonist activity, [35S]GTPγS binding to Gαo, 1 μM + BFNA: 1 μM compound + 1 μM β-funaltrexamine; for MOR agonist activity, [35S]GTPγS binding to Gαo, FLNA-binding compound as agonist 1 μM: 1 μM compound
Experimental: To assess the mu opiate receptor (MOR) agonist activity of positive compounds from the FLNA screening, compounds were tested in a [^35S]GTPγS binding assay using striatal membranes.
Striatal tissue was homogenized in 10 volumes of ice cold 25 mM HEPES buffer, pH 7.4, which contained 1 mM EGTA, 100 mM sucrose, 50 μg/ml leupeptin, 0.04 mM PMSF, 2 μg/ml soybean trypsin inhibitor and 0.2% 2-mercaptoethanol. The homogenates were centrifuged at 800×g for 5 minutes and the supernatants were centrifuged at 49,000×g for 20 minutes.
The resultant striatal membrane preparation (200 μg) was admixed and maintained (incubated) at 30° C. for 5 minutes in reaction buffer as above that additionally contained 1 mM MgCl2 and 0.5 nM [^35S]GTPγS (0.1 μCi/assay, PerkinElmer Life and Analytical Sciences) in a total volume of 250 μl and continued for 5 minutes in the absence or presence of 0.1-10 μM of an assayed compound of interest. The reaction was terminated by dilution with 750 μl of ice-cold reaction buffer that contained 20 mM MgCl2 and 1 mM EGTA and immediate centrifugation at 16,000×g for 5 minutes.
The resulting pellet was solubilized by sonicating for 10 seconds in 0.5 ml of immunoprecipitation buffer containing 0.5% digitonin, 0.2% sodium cholate and 0.5% NP-40. Normal rabbit serum (1 μl) was added to 1 ml of lysate and incubated at 25° C. for 30 minutes. Nonspecific immune complexes were removed by incubation with 25 μl of protein A/G-conjugated agarose beads at 25° C. for 30 minutes followed by centrifugation at 5,000×g at 4° C. for 5 minutes. The supernatant was divided and separately incubated at 25° C. for 30 minutes with antibodies raised against Gαo proteins (1:1,000 dilutions).
The immunocomplexes so formed were collected by incubation at 25° C. for 30 minutes with 40 μl of agarose-conjugated protein A/G beads and centrifugation at 5,000×g at 4° C. for 5 minutes. The pellet was washed and suspended in buffer containing 50 mM Tris-HCl, pH 8.0, and 1% NP-40. The radioactivity in the suspension was determined by liquid scintillation spectrometry. […] DAMGO (H-Tyr-D-Ala-Gly-N-MePhe-Gly-OH; 1 or 10 μM) was used as a positive control.

T1 sequence (P33535 whole entry): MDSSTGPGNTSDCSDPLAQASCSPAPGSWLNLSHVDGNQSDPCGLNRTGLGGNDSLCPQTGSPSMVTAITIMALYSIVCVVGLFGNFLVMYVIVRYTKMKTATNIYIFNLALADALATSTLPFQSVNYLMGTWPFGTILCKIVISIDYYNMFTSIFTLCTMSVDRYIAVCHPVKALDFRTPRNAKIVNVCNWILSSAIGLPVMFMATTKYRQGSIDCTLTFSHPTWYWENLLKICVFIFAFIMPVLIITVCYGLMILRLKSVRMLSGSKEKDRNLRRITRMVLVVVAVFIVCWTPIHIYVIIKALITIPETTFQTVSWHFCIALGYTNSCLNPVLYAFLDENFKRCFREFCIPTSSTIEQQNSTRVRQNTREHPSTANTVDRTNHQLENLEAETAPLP

Row | Compound | MOR agonist activity, [35S]GTPγS binding to Gαo, FLNA-binding compound as agonist 0.1 μM [%] | MOR agonist activity, [35S]GTPγS binding to Gαo, 1 μM + BFNA [%] | MOR agonist activity, [35S]GTPγS binding to Gαo, FLNA-binding compound as agonist 1 μM [%]
1 | COc1ccc(S(=O)(=O)N2CCC3(CC2)OCCN3S(=O)(=O)c2ccc(OC)c(OC)c2)cc1OC [Compound C0049] | 106.6 | 81.0 | 210.0
2 | CC(O)c1ccc(S(=O)(=O)N2CCC3(CC2)OCCN3S(=O)(=O)c2ccc(C(C)O)cc2)cc1 (stereo not drawn) [Compound C0051] | 94.4 | 55.9 | 170.4
3 | CC(=O)c1ccc(C(=O)N2CCOC23CCN(S(=O)(=O)c2ccc(C(C)=O)cc2)CC3)cc1 [Compound C0053] | 104.0 | 93.1 | 157.2
4 | CC(=O)c1ccc(C(=O)N2CCC3(CC2)OCCN3C(=O)c2ccc(C(C)=O)cc2)cc1 [Compound C0054] | 68.2 | 43.5 | 127.0
5 | COc1cc(S(=O)(=O)N2CCC3(CC2)OCCN3S(=O)(=O)c2cc(OC)c(OC)c(OC)c2)cc(OC)c1OC [Compound C0062] | 127.8 | 59.8 | 310.5
6 | CC(=O)c1ccc(S(=O)(=O)N2CCC3(CC2)NC(=O)CN3S(=O)(=O)c2ccc(C(C)=O)cc2)cc1 [Compound C0064] | 213.8 | 38.1 | 349.6
7 | CC(=O)c1ccc(S(=O)(=O)N2CCC3(CC2)OC(CN(C)C)CN3S(=O)(=O)c2ccc(C(C)=O)cc2)cc1 (stereo not drawn) [Compound C0065] | 198.3 | 47.7 | 279.5
8 | O=S(=O)(c1ccc(Cl)cc1)N1CCC2(CC1)OCCN2S(=O)(=O)c1ccc(Cl)cc1 [Compound C0067] | 142.7 | 33.5 | 179.0
9 | O=S(=O)(c1ccc(Br)cc1C(F)(F)F)N1CCC2(CC1)OCCN2S(=O)(=O)c1ccc(Br)cc1C(F)(F)F [Compound C0068] | 107.2 | 165.9 | 263.1
10 | O=S(=O)(c1ccc(Br)cc1Br)N1CCC2(CC1)OCCN2S(=O)(=O)c1ccc(Br)cc1Br [Compound C0070] | 165.6 | 114.2 | 210.8
11 | O=S(=O)(c1ccc(C(F)(F)F)cc1Br)N1CCC2(CC1)OCCN2S(=O)(=O)c1ccc(C(F)(F)F)cc1Br [Compound C0071] | 276.3 | 177.1 | 355.3
12 | O=S(=O)(c1ccc(F)c(F)c1)N1CCC2(CC1)OCCN2S(=O)(=O)c1ccc(F)c(F)c1 [Compound C0072] | 172.7 | 67.1 | 259.1
13 | O=S(=O)(c1ccc(Br)c(C(F)(F)F)c1)N1CCC2(CC1)OCCN2S(=O)(=O)c1ccc(Br)c(C(F)(F)F)c1 [Compound C0077] | 192.7 | 136.7 | 265.4
14 | O=S(=O)(c1ccc(Br)cc1F)N1CCC2(CC1)OCCN2S(=O)(=O)c1ccc(Br)cc1F [Compound C0078] | 138.1 | 170.7 | 236.6
15 | CC(=O)c1ccc(S(=O)(=O)N2CCC3(CC2)OCC(CCCCN(C)C)N3S(=O)(=O)c2ccc(C(C)=O)cc2)cc1 (stereo not drawn) [Compound C0080M] | 187.9 | 167.1 | 205.4
16 | CC(=O)c1ccc(S(=O)(=O)N2CCC3(CC2)NC(=O)C(Cc2cnc[nH]2)N3S(=O)(=O)c2ccc(C(C)=O)cc2)cc1 (stereo not drawn) [Compound C0084M] | 163.1 | 133.2 | 255.5
17 | CC(=O)c1ccc(S(=O)(=O)N2CCC3(CC2)NC(=O)CN3Cc2ccccc2)cc1 [Compound C0085M] | 211.6 | 43.7 | 246.2
18 | O=C1CN(Cc2ccccc2)C2(CCN(S(=O)(=O)c3cc(Cl)cc(Cl)c3O)CC2)N1 [Compound C0138M] | 126.9 | 51.5 | 183.9
19 | O=S(=O)(c1ccc2ccccc2c1)N1CCC2(CC1)OCCN2S(=O)(=O)c1ccc2ccccc2c1 [Compound C0140M] | 126.1 | 83.0 | 215.4
20 | O=S(=O)(c1cccs1)N1CCC2(CC1)OCCN2S(=O)(=O)c1cccs1 [Compound C0141M] | 161.5 | 47.9 | 213.9
21 | O=S(=O)(c1cccc2cccnc12)N1CCC2(CC1)OCCN2S(=O)(=O)c1cccc2cccnc12 [Compound C0143M] | 81.0 | 86.5 | 193.3
22 | COc1ccc(S(=O)(=O)N2CCC3(OCCN3S(=O)(=O)c3ccc(OC)cc3)C3CCCCC32)cc1 (stereo not drawn) [Compound C0144M] | 186.3 | 125.9 | 295.9
23 | COc1ccc(S(=O)(=O)N2CCCC3(C2)OCCN3S(=O)(=O)c2ccc(OC)cc2)cc1 (stereo not drawn) [Compound C0145M] | 193.0 | 87.0 | 289.2
24 | O=S(=O)(c1ccc(Oc2ccccc2)cc1)N1CCC2(CC1)OCCN2S(=O)(=O)c1ccc(Oc2ccccc2)cc1 [Compound C0149M] | 209.8 | 93.4 | 406.7
